In brackets after ≈: the same amount, converted by molar mass. Like-named read-outs stand apart in the source and are kept apart here.
Legend:
S. cholerasius GC 1355 = test: MIC, broth microdilution
Salmonella spp. GC 566 = test: MIC, broth microdilution; conditions: Salmonella
Salmonella spp. GC 235 = test: MIC, broth microdilution
E. coli #311 = test: In vivo activity (oral, iv; ED50) against E. coli in mice; conditions: Escherichia coli
Excerpt: . […] Smith and E. Coli #311 in mammals.
Results of the tests (MIC, oral and IV) are list in Table 7.

[1] = S. cholerasius GC 1355, Mouse Serum pre-incubation
[2] = S. cholerasius GC 1355, Water pre-incubation
[3] = SPP.GC566, Salmonella spp. GC 566, Mouse Serum pre-incubation
[4] = SPP.GC566, Salmonella spp. GC 566, Water pre-incubation
[5] = Salmonella, SPP.GC235, Salmonella spp. GC 235, Mouse Serum pre-incubation
[6] = Salmonella, SPP.GC235, Salmonella spp. GC 235, Water pre-incubation
[7] = single intravenous dose (SIV), read-out: ED50 E. coli #311 SIV
[8] = single oral dose (SOD), read-out: ED50 E. coli #311 SOD
[9] = SPP.GC566, pre-incubation in human serum
[10] = SPP.GC566, pre-incubation in mouse serum
[11] = SPP.GC566, pre-incubation in water
[12] = Salmonella, SPP.GC235, pre-incubation in human serum
[13] = Salmonella, SPP.GC235, pre-incubation in mouse serum
[14] = Salmonella, SPP.GC235, pre-incubation in water

CCCCN(CC(=O)Nc1cc(N(C)C)c2c(c1O)C(=O)C1=C(O)[C@]3(O)C(=O)C(C(N)=O)=C(O)[C@@H](N(C)C)[C@@H]3C[C@@H]1C2)C(=O)OCOC(=O)c1ccc(F)cc1 [Example 4, ({[(2-{[(5aR,6aS,7S,10aS)-9-(aminocarbonyl)-4,7-bis(dimethylamino)-1,8,10a,11-tetrahydroxy-10,12-dioxo-5,5a,6,6a,7,10,10a,12-octahydrotetracen-2-yl]amino}-2-oxoethyl)(butyl)amino]carbonyl}oxy)methyl 4-fluorobenzoate]
MIC (S. cholerasius GC 1355; [1]): 8 µg/mL (≈ 10.2 µM)
MIC (S. cholerasius GC 1355; [2]): > 64 µg/mL
MIC (Salmonella spp. GC 566; [3]): 4 µg/mL (≈ 5.12 µM)
MIC (Salmonella spp. GC 566; [4]): > 64 µg/mL
MIC (Salmonella spp. GC 235; [5]): 2 µg/mL (≈ 2.56 µM)
MIC (Salmonella spp. GC 235; [6]): > 64 µg/mL
ED50 (E. coli #311; [7]): > 2 mg/kg
ED50 (E. coli #311; [8]): > 32 mg/kg

CCCCN(CC(=O)Nc1cc(N(C)C)c2c(c1O)C(=O)C1=C(O)[C@]3(O)C(=O)C(C(N)=O)=C(O)[C@@H](N(C)C)[C@@H]3C[C@@H]1C2)C(=O)OCOC(=O)Cc1ccccc1 [Example 12, ({[(2-{[(5aR,6aS,7S,10aS)-9-(aminocarbonyl)-4,7-bis(dimethylamino)-1,8,10a,11-tetrahydroxy-10,12-dioxo-5,5a,6,6a,7,10,10a,12-octahydrotetracen-2-yl]amino}-2-oxoethyl)(butyl)amino]carbonyl}oxy)methyl phenylacetate]
MIC (S. cholerasius GC 1355; [1]): 16 µg/mL (≈ 20.6 µM)
MIC (S. cholerasius GC 1355; [2]): > 64 µg/mL
MIC (Salmonella spp. GC 566; [3]): 4 µg/mL (≈ 5.14 µM)
MIC (Salmonella spp. GC 566; [4]): > 64 µg/mL
MIC (Salmonella spp. GC 235; [5]): 1 µg/mL (≈ 1.29 µM)
MIC (Salmonella spp. GC 235; [6]): 64 µg/mL (≈ 82.3 µM)

CCCCN(CC(=O)Nc1cc(N(C)C)c2c(c1O)C(=O)C1=C(O)[C@]3(O)C(=O)C(C(N)=O)=C(O)[C@@H](N(C)C)[C@@H]3C[C@@H]1C2)C(=O)OCOC(=O)C(C)(C)C [Example 13, ({[(2-{[(5aR,6aS,7S,10aS)-9-(aminocarbonyl)-4,7-bis(dimethylamino)-1,8,10a,11-tetrahydroxy-10,12-dioxo-5,5a,6,6a,7,10,10a,12-octahydrotetracen-2-yl]amino}-2-oxoethyl)(butyl)amino]carbonyl}oxy)methyl pivalate]
MIC (S. cholerasius GC 1355; [1]): 16 µg/mL (≈ 21.5 µM)
MIC (S. cholerasius GC 1355; [2]): > 64 µg/mL
MIC (Salmonella spp. GC 566; [3]): 8 µg/mL (≈ 10.8 µM)
MIC (Salmonella spp. GC 566; [4]): 64 µg/mL (≈ 86 µM)
MIC (Salmonella spp. GC 235; [5]): 2 µg/mL (≈ 2.69 µM)
MIC (Salmonella spp. GC 235; [6]): 16 µg/mL (≈ 21.5 µM)

CCCN(CC(=O)Nc1cc(N(C)C)c2c(c1O)C(=O)C1=C(O)[C@]3(O)C(=O)C(C(N)=O)=C(O)[C@@H](N(C)C)[C@@H]3C[C@@H]1C2)C(=O)OCc1ccccc1 [Example 14, benzyl 2-{[(5aR,6aS,7S,10aS)-9-(aminocarbonyl)-4,7-bis(dimethylamino)-1,8,10a,11-tetrahydroxy-10,12-dioxo-5,5a,6,6a,7,10,10a,12-octahydrotetracen-2-yl]amino}-2-oxoethyl(propyl)carbamate]
MIC (S. cholerasius GC 1355; [1]): > 64 µg/mL
MIC (S. cholerasius GC 1355; [2]): > 64 µg/mL
MIC (Salmonella spp. GC 566; [3]): > 64 µg/mL
MIC (Salmonella spp. GC 566; [4]): > 64 µg/mL
MIC (Salmonella spp. GC 235; [5]): > 64 µg/mL
MIC (Salmonella spp. GC 235; [6]): > 64 µg/mL

CCCN(CC(=O)Nc1cc(N(C)C)c2c(c1O)C(=O)C1=C(O)[C@]3(O)C(=O)C(C(N)=O)=C(O)[C@@H](N(C)C)[C@@H]3C[C@@H]1C2)C(=O)OCC [Example 15, ethyl 2-{[(5aR,6aS,7S,10aS)-9-(aminocarbonyl)-4,7-bis(dimethylamino)-1,8,10a,11-tetrahydroxy-10,12-dioxo-5,5a,6,6a,7,10,10a,12-octahydrotetracen-2-yl]amino}-2-oxoethyl(propyl)carbamate]
MIC (S. cholerasius GC 1355; [1]): > 64 µg/mL
MIC (S. cholerasius GC 1355; [2]): > 64 µg/mL
MIC (Salmonella spp. GC 566; [3]): > 64 µg/mL
MIC (Salmonella spp. GC 566; [4]): > 64 µg/mL
MIC (Salmonella spp. GC 235; [5]): > 64 µg/mL
MIC (Salmonella spp. GC 235; [6]): > 64 µg/mL

CCCN(CC(=O)Nc1cc(N(C)C)c2c(c1O)C(=O)C1=C(O)[C@]3(O)C(=O)C(C(N)=O)=C(O)[C@@H](N(C)C)[C@@H]3C[C@@H]1C2)C(=O)OCC(C)C [Example 16, isobutyl 2-{[(5aR,6aS,7S,10aS)-9-(aminocarbonyl)-4,7-bis(dimethylamino)-1,8,10a,11-tetrahydroxy-10,12-dioxo-5,5a,6,6a,7,10,10a,12-octahydrotetracen-2-yl]amino}-2-oxoethyl(propyl)carbamate]
MIC (S. cholerasius GC 1355; [1]): > 64 µg/mL
MIC (S. cholerasius GC 1355; [2]): > 64 µg/mL
MIC (Salmonella spp. GC 566; [3]): > 64 µg/mL
MIC (Salmonella spp. GC 566; [4]): > 64 µg/mL
MIC (Salmonella spp. GC 235; [5]): > 64 µg/mL
MIC (Salmonella spp. GC 235; [6]): > 64 µg/mL

CCCCC(=O)OCOC(=O)N(CC(=O)Nc1cc(N(C)C)c2c(c1O)C(=O)C1=C(O)[C@]3(O)C(=O)C(C(N)=O)=C(O)[C@@H](N(C)C)[C@@H]3C[C@@H]1C2)C(C)(C)C [Example 61, ({[(2-{[(5aR,6aS,7S,10aS)-9-(aminocarbonyl)-4,7-bis(dimethylamino)-1,8,10a,11-tetrahydroxy-10,12-dioxo-5,5a,6,6a,7,10,10a,12-octahydrotetracen-2-yl]amino}-2-oxoethyl)(tert-butyl)amino]carbonyl}oxy)methyl pentanoate]
MIC (S. cholerasius GC 1355; pre-incubation in human serum): 64 µg/mL (≈ 86 µM)
MIC (S. cholerasius GC 1355; pre-incubation in mouse serum): 2 µg/mL (≈ 2.69 µM)
MIC (S. cholerasius GC 1355; pre-incubation in water): > 64 µg/mL
MIC (Salmonella spp. GC 566; [9]): 32 µg/mL (≈ 43 µM)
MIC (Salmonella spp. GC 566; [10]): 1 µg/mL (≈ 1.34 µM)
MIC (Salmonella spp. GC 566; [11]): > 64 µg/mL
MIC (Salmonella spp. GC 235; [12]): 16 µg/mL (≈ 21.5 µM)
MIC (Salmonella spp. GC 235; [13]): 1 µg/mL (≈ 1.34 µM)
MIC (Salmonella spp. GC 235; [14]): > 64 µg/mL
ED50 (E. coli #311; [7]): 2 to 4 mg/kg
ED50 (E. coli #311; [8]): > 32 mg/kg

CN(C)c1cc(NC(=O)CN(C(=O)OCOC(=O)C2CCC2)C(C)(C)C)c(O)c2c1C[C@H]1C[C@H]3[C@H](N(C)C)C(O)=C(C(N)=O)C(=O)[C@@]3(O)C(O)=C1C2=O [Example 62, ({[(2-{[(5aR,6aS,7S,10aS)-9-(aminocarbonyl)-4,7-bis(dimethylamino)-1,8,10a,11-tetrahydroxy-10,12-dioxo-5,5a,6,6a,7,10,10a,12-octahydrotetracen-2-yl]amino}-2-oxoethyl)(tert-butyl)amino]carbonyl}oxy)methyl cyclobutanecarboxylate]
MIC (S. cholerasius GC 1355; pre-incubation in human serum): 32 µg/mL (≈ 43.1 µM)
MIC (S. cholerasius GC 1355; pre-incubation in mouse serum): 2 µg/mL (≈ 2.7 µM)
MIC (S. cholerasius GC 1355; pre-incubation in water): > 64 µg/mL
MIC (Salmonella spp. GC 566; [9]): 16 µg/mL (≈ 21.6 µM)
MIC (Salmonella spp. GC 566; [10]): 1 µg/mL (≈ 1.35 µM)
MIC (Salmonella spp. GC 566; [11]): > 64 µg/mL
MIC (Salmonella spp. GC 235; [12]): 8 µg/mL (≈ 10.8 µM)
MIC (Salmonella spp. GC 235; [13]): 1 µg/mL (≈ 1.35 µM)
MIC (Salmonella spp. GC 235; [14]): > 64 µg/mL
ED50 (E. coli #311; [7]): 4 to 8 mg/kg
ED50 (E. coli #311; [8]): > 32 mg/kg

CN(C)c1cc(NC(=O)CN(C(=O)OCOC(=O)CCC2CCCCC2)C(C)(C)C)c(O)c2c1C[C@H]1C[C@H]3[C@H](N(C)C)C(O)=C(C(N)=O)C(=O)[C@@]3(O)C(O)=C1C2=O [Example 63, ({[(2-{[(5aR,6aS,7S,10aS)-9-(aminocarbonyl)-4,7-bis(dimethylamino)-1,8,10a,11-tetrahydroxy-10,12-dioxo-5,5a,6,6a,7,10,10a,12-octahydrotetracen-2-yl]amino}-2-oxoethyl)(tert-butyl)amino]carbonyl}oxy)methyl 3-cyclohexylpropanoate]
MIC (S. cholerasius GC 1355; pre-incubation in human serum): > 64 µg/mL
MIC (S. cholerasius GC 1355; pre-incubation in mouse serum): 2 µg/mL (≈ 2.51 µM)
MIC (S. cholerasius GC 1355; pre-incubation in water): > 64 µg/mL
MIC (Salmonella spp. GC 566; [9]): > 64 µg/mL
MIC (Salmonella spp. GC 566; [10]): 1 µg/mL (≈ 1.25 µM)
MIC (Salmonella spp. GC 566; [11]): > 64 µg/mL
MIC (Salmonella spp. GC 235; [12]): > 64 µg/mL
MIC (Salmonella spp. GC 235; [13]): 1 µg/mL (≈ 1.25 µM)
MIC (Salmonella spp. GC 235; [14]): > 64 µg/mL
ED50 (E. coli #311; [7]): 4 to 8 mg/kg
ED50 (E. coli #311; [8]): > 32 mg/kg

CCCCN(CC(=O)Nc1cc(N(C)C)c2c(c1O)C(=O)C1=C(O)[C@]3(O)C(=O)C(C(N)=O)=C(O)[C@@H](N(C)C)C3CC1C2)C(=O)OCc1oc(=O)oc1C (stereo partly drawn) [Example 109, (5-methyl-2-oxo-1,3-dioxol-4-yl)methyl 2-{[(7S,10aS)-9-(aminocarbonyl)-4,7-bis(dimethylamino)-1,8,10a,11-tetrahydroxy-10,12-dioxo-5,5a,6,6a,7,10,10a,12-octahydrotetracen-2-yl]amino}-2-oxoethyl(butyl)carbamate]
MIC (S. cholerasius GC 1355; pre-incubation in mouse serum): 8 µg/mL (≈ 10.8 µM)
MIC (S. cholerasius GC 1355; pre-incubation in water): 32 µg/mL (≈ 43.1 µM)
MIC (Salmonella spp. GC 566; [10]): 2 µg/mL (≈ 2.7 µM)
MIC (Salmonella spp. GC 566; [11]): 4 µg/mL (≈ 5.39 µM)
MIC (Salmonella spp. GC 235; [13]): 1 µg/mL (≈ 1.35 µM)
MIC (Salmonella spp. GC 235; [14]): 2 µg/mL (≈ 2.7 µM)
MIC (Salmonella spp. GC 235; pre-incubation in water): 4 UG/ML
